# Results from PMC11921344, “Antimicrobial peptide DiPGLa-H exhibits the most outstanding anti-infective activity among the PGLa variants based on a systematic comparison” (Applied and Environmental Microbiology, 2025).
# Like-named read-outs stand apart in the source and are kept apart here. Where no end group is shown, it is not given here.
# Columns and labels:
# [1] = tested on: E. coli K88 inner membrane; assay: Inner membrane integrity assay (PI); type: cell-based, Escherichia coli; settings: 4 µM, 16 µM and 64 µM peptide
# Procedure: (§1) The outer and inner membrane integrity of bacterial cells treated with peptides was assessed using NPN and PI staining, respectively. Full details are provided in the Supplementary Materials.
# Inner membrane integrity assay. E. coli K88 cells were washed and resuspended in 0.01 mol l−1 of PBS (pH 7.4) to obtain an OD600 of 0.5, followed by the addition of 10 nmol l−1 of PI (Thermo Fisher Scientific, catalogue no. P1304MP) in the presence of […]. After incubation for 30 min, fluorescence was measured with the excitation wavelength at 535 nm and emission wavelength at 615 nm.
# E. coli ATCC 25922 = settings: cited from earlier work
# Procedure: (§2) PGLa, an amphibian 21-residue cationic AMP, with a net charge of +4, was found in the skin of the toad Xenopus laevis ([6]). The minimum inhibitory concentration (MIC) of PGLa against Escherichia coli 25922 and S. aureus 25923 were 10–50 μg/mL and 50–100 μg/mL, respectively ([6]). […] The rep ...
# S. aureus ATCC 25923 = settings: cited from earlier work
# Procedure: as §2
# Gram-negative bacteria = assay: Geometric mean MIC and therapeutic index, Gram-negative; type: cell-based; settings: geometric mean of the peptide MICs against Gram-negative strains
# Procedure: (§3) The antibacterial activity was evaluated using a standard MIC and MBC assay according to the National Committee for Clinical Laboratory Standards (NCCLS). MIC, MBC assay, and time-kill curves for the optimal peptide are provided in the Supplementary Materials.
# (§4) Antimicrobial Activity Assays. The antibacterial activity of the peptides was determined using a method designed from the National Committee for Clinical Laboratory Standards (NCCLS) in the United States. All the strains used in the experiment are preserved in the laboratory. Briefly, log phase bacterial cells were diluted in MHB to a final concentration of 0.5-1x10^5 CFU/mL. Subsequently, 50μL of different concentrations of polypeptides were incubated with 50 μL of bacterial solution in sterile 96-well plates. In the minimum inhibitory concentration (MIC) assay, the plate was incubated at 37°C for 24 h, and the minimum inhibitory concentration (MIC) was determined by the absorbance at 492 nm of the microplate reader, and the minimum inhibitory concentration (MIC) inhibited 95% of bacteria grow. Determination of minimum bactericidal concentration: the plate was incubated at 37°C for 4 hours, 50 μL of the mixture was taken out of each well, diluted with an appropriate amount of PBS, smeared on the agar plate, and cultured overnight. Colonies were counted and the initial CFU/well was retrospectively calculated the following day. The lowest concentration of peptide that kills 99.9% of bacterial cells is the minimum bactericidal concentration (µM), Each test was replicated at least 3 times.
# Gram-positive bacteria = assay: Geometric mean MIC and therapeutic index, Gram-positive; type: cell-based; settings: geometric mean of the peptide MICs against Gram-positive strains
# Procedure: as §3, §4
# A. baumannii ATCC19606 = type: cell-based, Acinetobacter baumannii; settings: for MBC A. baumannii ATCC19606: ATCC19606, 4 h; for MIC A. baumannii ATCC19606: ATCC19606, 24 h
# Procedure: as §3, §4
# E. coli ATCC25922 = type: cell-based, Escherichia coli; settings: for MBC E. coli ATCC25922: ATCC25922, 4 h; for MIC E. coli ATCC25922: ATCC25922, 24 h
# Procedure: as §3
# as §4, with “[…],” for “the plate was incubated at 37°C for 24 h,”
# [2] = tested on: E. coli K88 outer membrane; assay: Outer membrane integrity assay (NPN uptake); type: cell-based, Escherichia coli; settings: 4 µM peptide; relative to 10 µg/mL polymyxin B = 100%
# Procedure: as §1
# Membrane permeabilization. Outer membrane integrity assay. The fluorescent probe NPN (Sigma-Aldrich, catalog no. 104043, ≥98%) was used to assess the outer membrane integrity of DiPGLa-H or mucin-treated E. coli K88. Briefly, log-medium E. coli K88 cells (OD600 = 0.2) were incubated with NPN (10 μM) in 5 mM HEPES buffer (pH 7.4, containing 5 mM glucose) for 30 min, and background fluorescence was recorded for subtraction. (excitation λ = 350 nm, emission λ = 420 nm) using a microplate reader (Varioskan Flash; Thermo, America). Subsequently, 100 μL of cell suspension was mixed with an equal volume of peptide solutions ranging in concentration from 4 to 64 μM in a sterile 96-well black plate. Fluorescence was recorded over time until no further increase in fluorescence was detected. Each test was performed independently, in duplicate, with three biological replicates, and results were converted to percent NPN uptake using the equation. NPN uptake (%) = (Fobs – Fbuffer)/ (Fpositive – Fbuffer) ×100%.
# where Fobs is the observed fluorescence at a given peptide concentration, Fbuffer is the fluorescence of the buffer, and Fpositive is the fluorescence of NPN with microbial cells upon addition of 10 μg/mL polymyxin B (Sigma), which was used as a positive control because of its strong outer membrane-permeabilizing property. Untreated cell suspension served as the negative control.
# S. aureus Mu50 = type: cell-based, Staphylococcus aureus MRSA; settings: for MBC S. aureus Mu50: Mu50, 4 h; for MIC S. aureus Mu50: Mu50, 24 h
# Procedure: as §3, §4
# P. aeruginosa ATCC27853 = type: cell-based, Pseudomonas aeruginosa; settings: for MBC P. aeruginosa ATCC27853: ATCC27853, 4 h; for MIC P. aeruginosa ATCC27853: ATCC27853, 24 h
# Procedure: as §3, §4
# all tested bacteria = assay: Geometric mean MIC and therapeutic index, all strains; type: cell-based; settings: for GMMIC All: geometric mean of the peptide MICs against all strains; for reduced antibacterial efficacy compared with DiPGLa-H: from MICs of Table 2
# Procedure: as §3, §4
# S. aureus ATCC29213 = type: cell-based, Staphylococcus aureus; settings: for MBC S. aureus ATCC29213: ATCC29213, 4 h; for MIC S. aureus ATCC29213: ATCC29213, 24 h
# Procedure: as §3, §4
# E. coli K88 = type: cell-based, Escherichia coli
# Procedure: as §3
# as §4, with “The lowest concentration of peptide that kills 99.9% of bacterial cells is the minimum bactericidal concentration (µM), Each test was replicated at least 3 times.” left out
# MRSA = settings: cited from earlier work
# Text: (§5) To date, there is a lack of systematic comparative study on the bacteriostatic activity and biosafety of PGLa and its variants, which precludes the determination of the variant with the highest potential for application. It has been more than 30 years since the discovery of PGLa in 1983 to the recent discovery of new PGLa-derived peptides.
# Pseudomonas aeruginosa = settings: cited from earlier work
# Text: as §5
# E. coli = settings: cited from earlier work
# Procedure: as §2
# S. aureus = settings: cited from earlier work
# Procedure: as §2
# [3] = tested on: Acinetobacter nosocomial Ab113; settings: cited from earlier work
# Text: as §5
# Helicobacter pylori = settings: cited from earlier work
# Text: as §5
# [4] = first of two independent studies
# [5] = second of two independent studies
Substance,GMMIC Gram-negative (Gram-negative bacteria) [µM],GMMIC Gram-positive (Gram-positive bacteria) [µM],MBC A. baumannii ATCC19606 (A. baumannii ATCC19606) [µM],MIC A. baumannii ATCC19606 (A. baumannii ATCC19606) [µM],MBC E. coli ATCC25922 (E. coli ATCC25922) [µM],MIC E. coli ATCC25922 (E. coli ATCC25922) [µM],MBC S. aureus Mu50 (S. aureus Mu50),MIC S. aureus Mu50 (S. aureus Mu50),MBC P. aeruginosa ATCC27853 (P. aeruginosa ATCC27853) [µM],MIC P. aeruginosa ATCC27853 (P. aeruginosa ATCC27853) [µM],GMMIC All (all tested bacteria) [µM],MBC S. aureus ATCC29213 (S. aureus ATCC29213) [µM],MIC S. aureus ATCC29213 (S. aureus ATCC29213) [µM],reduced antibacterial efficacy compared with DiPGLa-H (all tested bacteria),further results
KIAKVALKAL-NH2 (C-terminus assumed) [PGLa-H],128,128,> 128,> 128,> 128,> 128,>128 (>128) µM,>128 (>128) µM,> 128,> 128,128,> 128,> 128,,PI-DNA fluorescence intensity [1]: relatively constant PI-DNA fluorescence intensity; MIC E. coli ATCC25922 (E. coli ATCC 25922): 23.6 mg/L; MIC S. aureus ATCC 25923 (S. aureus ATCC 25923): 8.7 mg/L; outer membrane permeability (NPN uptake) [2]: failed to exhibit any discernible outer membrane permeability
GMASKAGAIAGKIAKVALKAL-NH2 (C-terminus assumed) [PGLa],38.05,64,16,16,> 64,> 64,>64 (>64) µM,>64 (>64) µM,64,64,45.25,64,64,,"MIC E. coli 25922 (E. coli ATCC 25922): 10 to 50 mg/L; MIC S. aureus 25923 (S. aureus ATCC 25923): 50 to 100 mg/L; MIC E. coli K88 (E. coli K88; lowest concentration inhibiting 95% of growth, MHB, 0.5-1x10^5 CFU/mL, 37°C 24 h, absorbance 492 nm, three independent experiments): 32 µM; MBC E. coli K88 (E. coli K88; lowest concentration killing >99.9% of cells, 37°C 4 h, plating, colony count, three independent trials): 64 µM"
KIAKGALKALKIAKVALKAL-NH2 (C-terminus assumed) [kiadin-2],4.76,32,4,4,16,8,32 (32) µM,32 (32) µM,8,4,8.98,32,32,2–8 times,
KIAKVALKALKIAKGALKAL-NH2 (C-terminus assumed) [kiadin-1],11.31,22.63,4,4,64,32,32 (32) µM,32 (32) µM,16,8,14.25,16,16,2–8 times,MIC MRSA (MRSA; [4]): 3 µM; MIC MRSA (MRSA; [5]): 16 mg/L; MIC Pseudomonas aeruginosa ATCC 25922 (Pseudomonas aeruginosa; [4]): 6 µM; MIC Pseudomonas aeruginosa ATCC 25922 (Pseudomonas aeruginosa; [5]): > 32 mg/L
GMASKAGSVLGKVAKVALKAAL-NH2 (C-terminus assumed) [PGLa-AM1],53.82,64,32,32,> 64,> 64,>64 (>64) µM,>64 (>64) µM,> 64,64,57.02,> 64,> 64,,MIC E. coli (E. coli): 12.5 µM; MIC S. aureus (S. aureus): 25 µM; MIC Acinetobacter nosocomial Ab113 [3]: 128 mg/L; MIC Helicobacter pylori (Helicobacter pylori): 1 mg/L
